Data reported in patent publication EP2548557A1, “Reserpine to treat cognitive faults of the central nervous system” (Dr. Loges + Co. GmbH, priority 2011, dated 2013).
Each block holds one molecule with its values, some of them ahead of it.

Legend:
[1] = tested on: Pyramidenzellen im Hippokampus-Schnittpräparat; settings: literature description (Dimpfel 1995) used as comparison; cited from earlier work
Fischer-344 Ratten = test: Tele-Stereo-EEG: changes of EEG frequencies (spectral power) after oral administration; format: in vivo, Ratte
Experimental: Die Veränderungen der EEG-Frequenzen wurde nach oraler Gabe von Lactosemonohydrat (Kontrolle/Vehikel) bzw. Verdünnungen von Reserpin in Lactosemonohydrat entsprechend 0,01, 0,02 oder 0,04 µg Reserpin/kg Körpergewicht) bestimmt.
Die Untersuchungen wurden analog der durch W. Dimpfel beschriebenen Methode (Dimpfel W Preclinical data base of pharmaco-specific rat EEG fingerprints (Tele-Stereo-EEG). Eur J Med Res (2003) 8: 199-207; auf dieses Dokument wird vollinhaltlich bezug genommen) folgendermaßen durchgeführt:
Zwölf männlichen erwachsenen Fischer-344 Ratten (Tag-Nacht konvertiert) wurden im Alter von 6 Monaten 4 bipolar konzentrische Elektroden zusammen mit einem Mikrostecker auf einer gemeinsamen Basisplatte implantiert. Der Stecker diente der Aufnahme eines 4-Kanal-Senders zur telemetrischen Übertragung der aus frontalem Kortex, Hippokampus, Striatum und Formatio Reticularis abgeleiteten Feldpotentiale. Die Signale wurden auf einem Computer System (Software "EEG-Analyse", Betriebssystem OS Science, Laborrechner "LabTeam" der Firma MediSyst, Linden, DE) in Echtzeit einer Fast-FourierTransformation unterworfen und die Leistungsdichtespektren jeweils über 60 Minuten gemittelt. Die Unterteilung der Spektren in 6 verschiedene Frequenzbereiche erlaubte die Erfassung pharmako-spezifischer Veränderungen in Bezug auf die jeweils vor Applikation gemessenen Vorwerte innerhalb dieser Frequenzbänder.
Zum Applikationsprotokoll der Substanzen: die Substanzen wurden oral 45 Minuten nach Beginn der Messungen (Vorwert) appliziert. Fünf Minuten später wurden die Messungen wieder gestartet, mindestens über die nächsten 5 Stunden kontinuierlich analysiert und in 60-minütigen Perioden zusammengefasst. Die Testsubstanz wurde in einer Dosierung von 0,01, 0,02 und 0,04 µg/kg appliziert. Die experimentelle Serie wurde mit der Applikation von Lactosemonohydrat (Kontrolle), die zu keiner auffälligen Änderung führte, begonnen (oberste Zeile in Abb. 1).
Der statistische Vergleich der Versuche zu den Ergebnissen, die nach Gabe des Vehikels gemessen wurde, erfolgte mit Hilfe des statistischen Tests nach Wilcoxon, Mann und Whitney auf der Basis der Veränderungen innerhalb der einzelnen Frequenzbänder in allen Hirnregionen als Variablen.

[2] = tested on: Pyramidenzellen im Hippokampus-Schnittpräparat; test: Population spike of pyramidal cells and long-term potentiation in hippocampus slice preparation in vitro; format: cell-based, Ratte; settings: 0,025-0,1 µg/Liter Reserpin, n=4 slices
From the text: Zunächst wurde anhand der Applikation von Einzelreizen die normale Erregbarkeit überprüft und anschließend nach einer sog. "Theta-burst-Stimulation" die Auswirkungen auf die Langzeitpotenzierung gemessen.
Das Experiment selbst wurde in einer sog. "Base Unit" mit Haas Top" (Firma Medical Systems Corp., USA) bei 35 Grad Celsius durchgeführt. Der mit Hilfe peristaltischer Pumpen (Infusomat B. Braun Melsungen AG) superfundierte Hippokampus-Schnitt lag auf einem Stück Gaze. Eingeleitetes Carbogen hielt die erforderliche Sauerstoffzufuhr der Lösung aufrecht. Die Durchflussgeschwindigkeit betrug 200 ml/h.
Dabei wurde der Schnitt zunächst mit Kontrolllösung superfundiert. […] Jeder Schnitt wurde jeweils nur zu einem Experiment benutzt.
Die Ableitung der evozierten Antwort erfolgte in 10-minütigem Abstand extrazellulär mit einer gezogenen Glaskapillare (Elektrodenpuller, Rhema Labortechnik, DE). Das Antwortsignal wurde verstärkt (Verstärker "LMI", List Electronics, Darmstadt, DE) mit einem Laborrechnersystem Labteam (Software NeuroTool, MediSyst GmbH, Linden DE) analog digital gewandelt (Auflösung 12 Bit) und ausgewertet. Nach Auffinden eines geeigneten Signals (Amplitudenhöhe etwa 1 mV) wurde die Amplitudenhöhe des Populationsspikes (SAP=Summenaktionspotential; Popspike) als Ausgangsgröße festgelegt. […]

[3] = tested on: metabotrope Gruppe II Rezeptoren; test: Hippocampus slice preparation: suppression of the reserpine effect by a glutamate receptor antagonist (metabotropic group II); format: cell-based, Ratte; settings: co-superfusion of antagonist with Reserpin; single and multiple stimuli (Abb. 5, Abb. 6)
From the text: (§1) Wirkungen von Reserpin auf die Erregbarkeit der Pyramidenzellen wurden im Hippokampus-Schnittpräparat der Ratte bestimmt. Die Analyse der Wirkungen erfolgte auf zwei Ebenen. Zunächst wurde anhand der Applikation von Einzelreizen die normale Erregbarkeit überprüft und anschließend nach einer sog. "Theta-burst-Stimulation" die Auswirkungen auf die Langzeitpotenzierung gemessen. Im nächsten Schritt wurde versucht, die Wirkung von Reserpin mit Hilfe von verschiedenen Rezeptor-spezifischen Glutamat Antagonisten zu unterdrücken.
(§2) Desweiteren wurde die Erregbarkeit der Pyramidenzellen in der Ausgangslage durch Superfusion mit einem Glutamat Rezeptor Antagonisten verändert. In der Folge wurde dann gleichzeitig Reserpin mit den verschiedenen Antagonisten zusammen superfundiert, um eine antagonistische Wirkung zu erkennen.
(§3) Dieselbe Versuchsanordnung wurde noch einmal genutzt, um in Gegenwart verschiedenster Glutamat Rezeptor Antagonisten Hinweise für eine Interaktion zwischen Reserpin und einem der Glutamat-Rezeptoren (GluR5 Kainate steht dabei für den ionotropen GluR5 Kainate-Rezeptor, Glu NMDA - für ionotrope NMDA-Rezeptoren, Glu AMPA - für ionotrope AMPA-Rezeptoren, und Glu II - für metabotrope Gruppe II Rezeptoren) zu erhalten (Abb. 5 und Abb.6).
(§4) Es wurden vier Antagonisten getestet. Dabei steht UB 301 für den Kainate-Rezeptor-Antagonisten UBP 301, CAS-Nr. 569371-10-4, der Formel [drawing 2] […]

[4] = tested on: ionotrope AMPA-Rezeptoren; test: Hippocampus slice preparation: suppression of the reserpine effect by a glutamate receptor antagonist (AMPA); format: cell-based, Ratte; settings: co-superfusion of antagonist with Reserpin; multiple stimuli
From the text: as §1, §2, §3, §4

Compound: CC12CC3CC(C)(C1)CC(N)(C3)C2 [Memantin]
- Langzeit-Potenzierung (LTP) bei multipler elektrischer Reizung [1]: Steigerung der LTP

Compound: COC(=O)[C@H]1[C@H]2C[C@@H]3c4[nH]c5cc(OC)ccc5c4CCN3C[C@H]2C[C@@H](OC(=O)c2cc(OC)c(OC)c(OC)c2)[C@@H]1OC [Reserpin, (1S,2R,3R,4aS,13bR,14aS)-2,11-Dimethoxy-3-(3,4,5-trimethoxybenzoyloxy)-1,2,3,4,4a,5,7,8,13,13b,14,14a-dodecahydroindolo[2',3':3,4]pyrido[1,2-b]isochinolin-1-carbonsäuremethylester]
- Frequenzmuster in der Diskriminanzanalyse im Vergleich zu Referenzmedikamenten (Fischer-344 Ratten; 0.02 µg/kg, 35 - 65 min, linear discriminant analysis, 4 brain regions x 6 frequency bands, compared with Memantin, Rasagiline, Methylphenidat): korreliert in auffälliger Weise mit den Mustern
- Steigerung der Motilität der Tiere (Fischer-344 Ratten; oral, 0,01, 0,02 and 0,04 µg/kg): nicht beobachtet
- alpha2 Wellen (spektrale Leistung) (Fischer-344 Ratten; oral, 0,01, 0,02 and 0,04 µg/kg, frequency band most affected): Besonders stark waren die alpha2 Wellen betroffen
- spektrale Leistung in allen Frequenzbereichen (EEG) (Fischer-344 Ratten; oral, 0,01, 0,02 and 0,04 µg/kg, frontal cortex, hippocampus, striatum, formatio reticularis, vs. vehicle Lactosemonohydrat, n=12): dosis-abhängigen Unterdrückung der spektralen Leistung in allen Frequenzbereichen
- Amplitude des Populationsspikes bei Einzelreizung ([2]; single stimuli of Schaffer collaterals): Konzentrations-abhängige Zunahme
- Auslösung der Langzeitpotenzierung durch TBS ([2]; theta-burst stimulation): Konzentrations-abhängig verbessert

Compound: NC1(C(=O)O)CCc2cc(P(=O)(O)O)ccc21 (racemic) [RS-Apica, (RS)-1-Amino-5-phosphono-indan-1-carbonsäure]
- Unterdrückung der Wirkung von Reserpin durch Antagonist [3]: besonders ausgeprägt unterdrücken

- Unterdrückung der Wirkung von Reserpin durch Antagonist [4]: auch eine Unterdrückung
Compound: NS(=O)(=O)c1cccc2c1c([N+](=O)[O-])cc1[nH]c(=O)c(=O)[nH]c12 [NBQX]
